Test results from patent publication US20260152533A1, “COMBINATION INHIBITORS FOR TREATING FIBROSIS” (Memorial Sloan-Kettering Cancer Center, priority 2021, published 2026).

Key:
NIH-3T3 cells [1] = experiment: Western blot of NIH-3T3 cells (collagen I, GCN2, ATF4, PC); format: cell-based, mouse
Text: PSCs were isolated from C57BL/6 mice by differential centrifugation as previously described^49 and their mesenchymal origin was validated by analyzing the expression of various mesenchymal and epithelial markers. MFBs were isolated from FVB/N mice by differential centrifugation as previously described^50. DB7 mouse breast cancer cells were obtained from Alexander Borowsky (University of California Davis Comprehensive Cancer Center, Sacramento, CA, USA) through an MTA to Ohio State University (OSU). KPC (Kras^LSL-G12D; Trp53^LSL-R172H; Pdx1-Cre) mouse PDAC cells were a gift from Scott Lowe (Memorial Sloan Kettering Cancer Center. (MSKCC)). All cells were cultured at 37° C. in 5% carbon dioxide (CO2) and 20% oxygen (O2) and were maintained in Dulbecco's Modified Eagles medium (DMEM) (25 mM D-glucose, 2 mM L-glutamine) supplemented with 10% fetal bovine serum (FBS) (Gemini), 100 units/ml penicillin and 100 μg/ml streptomycin. Primary PSC and MFB cells were kept in culture for no more than ten passages. Experiments with iCAFs and myCAFs were performed as previously described^29. In brief, qPSCs were generated by culturing PSCs in a dome of GFR Matrigel (Corning) in DMEM; iCAFs were generated by culturing PSCs in a dome of GFR Matrigel in DMEM conditioned by KPC cells for 48 h; myCAFs were generated by monolayer culture of PSCs. Differentiation was validated by analyzing the expression of iCAF/myCAF markers^29. For experiments with different glutamine concentrations, cells were seeded in regular DMEM and the medium was changed 5-6 hours later or the following day to glucose and glutamine-free DMEM supplemented with 10% dialyzed FBS (Gemini) and 20 mM D-glucose, 2 mM L-glutamine (100%), 0.4 mM L-glutamine (20%) or 0.2 mM L-glutamine (10%). All media were prepared by the Media Preparation Facility at MSKCC. Cells were verified as mycoplasma-free by the MycoAlert Mycoplasma Detection Kit (Lonza).
Lysates were generated by incubating cells or ground tumors in RIPA buffer (Millipore); […] of cleared lysate were analyzed by SDS-polyacrylamide gel electrophoresis (SDS-PAGE) as previously described^11. […] The following secondary antibodies were used: anti-rabbit horseradish peroxidase (HRP) (1:5,000; GE, NA934V), anti-mouse HRP (1:5,000; GE, NA931). Quantification of band intensities of collagen I relative to […] or vinculin in tumor allograft experiments was performed with Image Lab software v6.0 (Bio-Rad).

[2] = system: pyruvate carboxylase (PC); experiment: Stable isotope tracing in NIH-3T3 cells (surrogate for PC activity); format: cell-based, mouse
Description: Cells were plated in six-well cell culture plates at a concentration aimed to reach 0.5-1×10^6 cells at the time of harvest. For quantification of relative metabolite abundance, cells were cultured with glutamine-free DMEM containing different concentrations of L-glutamine and supplemented with 10% dialyzed FBS and in some experiments were treated with TGFβ for 48 hours. For the [U-^13C]and [3,4-^13C]glucose tracing experiments, cells were cultured as above, and in the last 8 hours media was replaced with DMEM without D-glucose and L-glutamine supplemented with 2 mM or 0.2 mM L-glutamine and 10 mM [U-^13C]or [3,4-^13C]D-glucose (Cambridge Isotope Laboratories) and 10% dialyzed FBS. For the [U-^13C]and [1-^13C]lactate tracing experiments, cells were cultured in 2 or 0.2 mM L-glutamine, 10 or 1 mM D-glucose in the presence or absence of 10 mM sodium lactate, and in the last 8 hours media was replaced with DMEM without D-glucose and L-glutamine supplemented with 2 mM or 0.2 mM L-glutamine, 10 or 1 mM D-glucose, 10 mM [U-^13C]or [1-^13C]sodium lactate (Cambridge Isotope Laboratories) and 10% dialyzed FBS. For relative quantification of metabolites by gas chromatography-mass spectroscopy (GC-MS), cells were washed briefly with PBS, which was then fully aspirated and metabolism was quenched by immediately adding 1 mL of 80:20 methanol:water stored at −80° C. containing 20 μM deuterated 2-hydroxyglutarate (d5-2HG) as an internal standard. For stable isotope tracing experiments, metabolism was quenched without the PBS washing step by adding 1 mL of 80:20 methanol:water as above. After overnight incubation at −80° C., the resulting extracts were scraped on dry ice, transferred into a 1.5 mL centrifuge tube, and centrifuged at 20,000 g for 20 minutes at 4° C. The supernatants were collected in clean tubes and dried in a vacuum evaporator (Genevac EZ-2 Elite) for 2 hours.
For [U-^13C]glucose tracing into proteinogenic amino acids, cells were cultured in 10% Gln in the presence or absence of TGFβ for 48 hours. In the last 24 hours, the media including all treatments was replaced with DMEM without L-glutamine and D-glucose and supplemented with 0.2 mM L-glutamine and 10 mM [U-^13C]D-glucose (Cambridge Isotope Laboratories) and 10% dialyzed FBS. For [U-^13C]lactate tracing into ECM, confluent cells were cultured in 10% Gln in the presence of 10 mM [U-^13C]sodium lactate for 6 days. The media was replaced every other day. ECM was decellularized as described above. Cells and ECM were washed with PBS, and proteins were precipitated with methanol:chloroform:water (1:1:1). The interphase was washed with methanol, and the dried pellet was subjected to acid hydrolysis with 6 N hydrochloric acid (HCl) and incubation at 95° C. for 16 hours. Samples were cooled to room temperature and centrifuged at 20,000 g for 10 minutes. The cleared supernatant was dried in a vacuum evaporator (Genevac EZ-2 Elite) for 2 hours, and abundance of aspartate, glutamate/glutamine or hydroxyproline isotopologues was measured by GC-MS as described below.
GC-MS measurements were performed as described before^11. Ions used for quantification of metabolite levels were as follows: d5-2HG m/z 354; citrate m/z 465; alpha-ketoglutarate m/z 304; succinate m/z 247; fumarate m/z 245; malate m/z 335; aspartate m/z 232; hydroxyproline m/z 332; proline m/z 216; glutamate m/z 246; glutamine m/z 245; lactate m/z 219; pyruvate m/z 174. All peaks were manually inspected and verified relative to known spectra for each metabolite. Peak identification and integration were done with MassHunter software vB.09 (Agilent Technologies). For relative quantification of cell samples, integrated peak areas were normalized to the internal standard d5-2HG and to the packed cell volume of each sample. Absolute quantification of hydroxyproline in tumor acid hydrolysates was performed against a standard curve of commercial trans-4-hydroxy-L-proline (Sigma). […]

NIH-3T3 cells [3] = details: proliferative fibroblasts, glutaminase inhibition; cited from earlier work
[4] = 10% Gln, TGFβ, 48 hours (FIG. 1G)

## O=C(Cc1cccc(OC(F)(F)F)c1)Nc1ccc(CCCCc2nnc(NC(=O)Cc3ccccn3)s2)nn1 [CB839]
NIH-3T3 cells [1]; [4]
  collagen I protein levels: only marginally increased
  rescue of GCN2 activation induced by TGFβ treatment: did not rescue
NIH-3T3 cells [1]; PC-deleted cells (PC sgRNA), CB839, 48 hours (FIG. 4H)
  collagen I levels: reduced collagen I levels
NIH-3T3 cells [1]; full medium (100% Gln), CB839 1 μM alone, 48 hours (FIG. 4E)
  collagen I levels: did not affect
[2]; 100% Gln, CB839, 48 hours (FIG. 4G)
  m+1 labelling of aspartate and pyruvate carboxylation activity from [3,4-13C]Glc: increased
[2]; CB839, 48 hours (FIG. 4F), indicative of anaplerosis via PC
  m+3 labelling of TCA cycle intermediates and related NEAAs from [U-13C]Glc: increased
NIH-3T3 cells [3]
  Gln-tRNA charging: restored
